Laboratory results as given in US9469650B2, “Melampomagnolide B derivatives” (BOARD OF TRUSTEES OF THE UNIVERSITY OF ARKANSAS, priority 2013, dated 2016).

How the values were obtained:
HCT-116 = assay: panel of 60 human tumor cell lines, growth inhibition (Colon Cancer); details: HCT-116
SN12C = assay: panel of 60 human tumor cell lines, growth inhibition (Renal Cancer)
CAKI-1 = assay: as above; details: CAKI-1
SK-MEL-5 = assay: panel of 60 human tumor cell lines, growth inhibition (Melanoma); details: 8K-MEL-5
MOLT-4 = assay: panel of 60 human tumor cell lines, growth inhibition (Leukemia); details: MOLT-4
SK-MEL-2 = assay: panel of 60 human tumor cell lines, growth inhibition (Melanoma); details: SK-MEL-2
PC-3 = assay: panel of 60 human tumor cell lines, growth inhibition (Prostate Cancer); details: PC-3
SW-620 = assay: panel of 60 human tumor cell lines, growth inhibition (Colon Cancer); details: SW-620
T-47D = assay: panel of 60 human tumor cell lines, growth inhibition (Breast Cancer); details: T-47D
UO-31 = assay: panel of 60 human tumor cell lines, growth inhibition (Renal Cancer); details: UO-31
LOX IMVI = assay: panel of 60 human tumor cell lines, growth inhibition (Melanoma)
M14 = assay: as above; details: M14
SNB-75 = assay: panel of 60 human tumor cell lines, growth inhibition (CNS Cancer); details: SNB-75
A549/ATCC = assay: panel of 60 human tumor cell lines, growth inhibition (Non-Small Cell Lung Cancer); details: A549/ATCC
SK-MEL-28 = assay: panel of 60 human tumor cell lines, growth inhibition (Melanoma); details: SK-MEL-28
OVCAR-3 = assay: panel of 60 human tumor cell lines, growth inhibition (Ovarian Cancer); details: OVCAR-3
MCF7 = assay: panel of 60 human tumor cell lines, growth inhibition (Breast Cancer); details: MCF7
MDA-MB-231/ATCC = assay: as above; details: MDA-MB-231/ATCC
NCI/ADR-RES = assay: panel of 60 human tumor cell lines, growth inhibition (Ovarian Cancer)

For `C=C1C(=O)O[C@H]2[C@H]1CC/C(COC(=O)CCC(=O)N1CCC(C)CC1)=C\CC[C@@]1(C)O[C@@H]21` [JVM 2-70], the “Percent Growth” value (HCT-116; Log10 Concentration −4.0) was −93%, the “Percent Growth” value (HCT-116; Log10 Concentration −5.0) was −46% and the “Percent Growth” value (HCT-116; Log10 Concentration −6.0) was 79%. For the same compound, the “Percent Growth” value (HCT-116; Log10 Concentration −7.0) was 95%, the “Percent Growth” value (HCT-116; Log10 Concentration −8.0) was 91% and the GI50 (HCT-116; NCI five dose) was 1.69 µM. The TGI (HCT-116; NCI five dose) was 4.25E−6, the “Percent Growth” value (SN12C; Log10 Concentration −4.0) was −82% and the “Percent Growth” value (SN12C; Log10 Concentration −5.0) was 30%. For the same compound, the “Percent Growth” value (SN12C; Log10 Concentration −6.0) was 92%, the “Percent Growth” value (SN12C; Log10 Concentration −7.0) was 93% and the “Percent Growth” value (SN12C; Log10 Concentration −8.0) was 97%. The GI50 (SN12C; NCI five dose) was 4.8 µM, the TGI (SN12C; NCI five dose) was 1.86E−5 and the “Percent Growth” value (CAKI-1; Log10 Concentration −4.0) was −93%. For the same compound, the “Percent Growth” value (CAKI-1; Log10 Concentration −5.0) was 4%, the “Percent Growth” value (CAKI-1; Log10 Concentration −6.0) was 88% and the “Percent Growth” value (CAKI-1; Log10 Concentration −7.0) was 95%. The “Percent Growth” value (CAKI-1; Log10 Concentration −8.0) was 90%, the GI50 (CAKI-1; NCI five dose) was 2.83 µM and the TGI (CAKI-1; NCI five dose) was 1.11E−5. For the same compound, the “Percent Growth” value (SK-MEL-5; Log10 Concentration −4.0) was −93%, the “Percent Growth” value (SK-MEL-5; Log10 Concentration −5.0) was 42% and the “Percent Growth” value (SK-MEL-5; Log10 Concentration −6.0) was 96%. For the same compound, the “Percent Growth” value (SK-MEL-5; Log10 Concentration −7.0) was 99%, the “Percent Growth” value (SK-MEL-5; Log10 Concentration −8.0) was 98% and the GI50 (SK-MEL-5; NCI five dose) was 7.17 µM. The TGI (SK-MEL-5; NCI five dose) was 2.05E−5, the “Percent Growth” value (MOLT-4; Log10 Concentration −4.0) was −49% and the “Percent Growth” value (MOLT-4; Log10 Concentration −5.0) was −9%. The “Percent Growth” value (MOLT-4; Log10 Concentration −6.0) was 115%, the “Percent Growth” value (MOLT-4; Log10 Concentration −7.0) was 119% and the “Percent Growth” value (MOLT-4; Log10 Concentration −8.0) was 110%. The GI50 (MOLT-4; NCI five dose) was 3.33 µM, the TGI (MOLT-4; NCI five dose) was 8.45E−6 and the “Percent Growth” value (SK-MEL-2; Log10 Concentration −4.0) was −82%. The “Percent Growth” value (SK-MEL-2; Log10 Concentration −5.0) was 68%, the “Percent Growth” value (SK-MEL-2; Log10 Concentration −6.0) was 108% and the “Percent Growth” value (SK-MEL-2; Log10 Concentration −7.0) was 112%. For the same compound, the “Percent Growth” value (SK-MEL-2; Log10 Concentration −8.0) was 106%, the GI50 (SK-MEL-2; NCI five dose) was 13.1 µM and the TGI (SK-MEL-2; NCI five dose) was 2.83E−5. For the same compound, the “Percent Growth” value (PC-3; Log10 Concentration −4.0) was −72%, the “Percent Growth” value (PC-3; Log10 Concentration −5.0) was 66% and the “Percent Growth” value (PC-3; Log10 Concentration −6.0) was 94%. The “Percent Growth” value (PC-3; Log10 Concentration −7.0) was 93%, the “Percent Growth” value (PC-3; Log10 Concentration −8.0) was 94% and the GI50 (PC-3; NCI five dose) was 13 µM. For the same compound, the TGI (PC-3; NCI five dose) was 3.00E−5, the “Percent Growth” value (SW-620; Log10 Concentration −4.0) was −80% and the “Percent Growth” value (SW-620; Log10 Concentration −5.0) was 1%. For the same compound, the “Percent Growth” value (SW-620; Log10 Concentration −6.0) was 79%, the “Percent Growth” value (SW-620; Log10 Concentration −7.0) was 97% and the “Percent Growth” value (SW-620; Log10 Concentration −8.0) was 99%. The GI50 (SW-620; NCI five dose) was 2.33 µM, the TGI (SW-620; NCI five dose) was 1.02E−5 and the “Percent Growth” value (T-47D; Log10 Concentration −4.0) was −48%. The “Percent Growth” value (T-47D; Log10 Concentration −5.0) was 34%, the “Percent Growth” value (T-47D; Log10 Concentration −6.0) was 94% and the “Percent Growth” value (T-47D; Log10 Concentration −7.0) was 94%. For the same compound, the “Percent Growth” value (T-47D; Log10 Concentration −8.0) was 86%, the GI50 (T-47D; NCI five dose) was 5.45 µM and the TGI (T-47D; NCI five dose) was 2.61E−5. For the same compound, the “Percent Growth” value (UO-31; Log10 Concentration −4.0) was −84%, the “Percent Growth” value (UO-31; Log10 Concentration −5.0) was 19% and the “Percent Growth” value (UO-31; Log10 Concentration −6.0) was 88%. For the same compound, the “Percent Growth” value (UO-31; Log10 Concentration −7.0) was 94%, the “Percent Growth” value (UO-31; Log10 Concentration −8.0) was 96% and the GI50 (UO-31; NCI five dose) was 3.56 µM. For the same compound, the TGI (UO-31; NCI five dose) was 1.53E−5, the “Percent Growth” value (LOX IMVI; Log10 Concentration −4.0) was −84% and the “Percent Growth” value (LOX IMVI; Log10 Concentration −5.0) was 4%. The “Percent Growth” value (LOX IMVI; Log10 Concentration −6.0) was 91%, the “Percent Growth” value (LOX IMVI; Log10 Concentration −7.0) was 96% and the “Percent Growth” value (LOX IMVI; Log10 Concentration −8.0) was 96%. For the same compound, the GI50 (LOX IMVI; NCI five dose) was 2.95 µM, the TGI (LOX IMVI; NCI five dose) was 1.10E−5 and the “Percent Growth” value (M14; Log10 Concentration −4.0) was −81%. For the same compound, the “Percent Growth” value (M14; Log10 Concentration −5.0) was 21%, the “Percent Growth” value (M14; Log10 Concentration −6.0) was 84% and the “Percent Growth” value (M14; Log10 Concentration −7.0) was 94%. For the same compound, the “Percent Growth” value (M14; Log10 Concentration −8.0) was 91%, the GI50 (M14; NCI five dose) was 3.44 µM and the TGI (M14; NCI five dose) was 1.60E−5. The “Percent Growth” value (SNB-75; Log10 Concentration −4.0) was −85%, the “Percent Growth” value (SNB-75; Log10 Concentration −5.0) was 57% and the “Percent Growth” value (SNB-75; Log10 Concentration −6.0) was 80%. For the same compound, the “Percent Growth” value (SNB-75; Log10 Concentration −7.0) was 81%, the “Percent Growth” value (SNB-75; Log10 Concentration −8.0) was 72% and the GI50 (SNB-75; NCI five dose) was 11.2 µM. For the same compound, the TGI (SNB-75; NCI five dose) was 2.53E−5, the “Percent Growth” value (A549/ATCC; Log10 Concentration −4.0) was −68% and the “Percent Growth” value (A549/ATCC; Log10 Concentration −5.0) was 79%. The “Percent Growth” value (A549/ATCC; Log10 Concentration −6.0) was 93%, the “Percent Growth” value (A549/ATCC; Log10 Concentration −7.0) was 96% and the “Percent Growth” value (A549/ATCC; Log10 Concentration −8.0) was 97%. For the same compound, the GI50 (A549/ATCC; NCI five dose) was 15.8 µM, the TGI (A549/ATCC; NCI five dose) was 3.47E−5 and the “Percent Growth” value (SK-MEL-28; Log10 Concentration −4.0) was −79%. The “Percent Growth” value (SK-MEL-28; Log10 Concentration −5.0) was 4%, the “Percent Growth” value (SK-MEL-28; Log10 Concentration −6.0) was 95% and the “Percent Growth” value (SK-MEL-28; Log10 Concentration −7.0) was 100%. The “Percent Growth” value (SK-MEL-28; Log10 Concentration −8.0) was 89%, the GI50 (SK-MEL-28; NCI five dose) was 3.1 µM and the TGI (SK-MEL-28; NCI five dose) was 1.11E−5. The “Percent Growth” value (OVCAR-3; Log10 Concentration −4.0) was −96%, the “Percent Growth” value (OVCAR-3; Log10 Concentration −5.0) was −2% and the “Percent Growth” value (OVCAR-3; Log10 Concentration −6.0) was 88%. The “Percent Growth” value (OVCAR-3; Log10 Concentration −7.0) was 105%, the “Percent Growth” value (OVCAR-3; Log10 Concentration −8.0) was 109% and the GI50 (OVCAR-3; NCI five dose) was 2.85 to 6 µM. For the same compound, the TGI (OVCAR-3; NCI five dose) was 9.47E−6, the “Percent Growth” value (MCF7; Log10 Concentration −4.0) was −63% and the “Percent Growth” value (MCF7; Log10 Concentration −5.0) was 4%. For the same compound, the “Percent Growth” value (MCF7; Log10 Concentration −6.0) was 74%, the “Percent Growth” value (MCF7; Log10 Concentration −7.0) was 88% and the “Percent Growth” value (MCF7; Log10 Concentration −8.0) was 83%. The GI50 (MCF7; NCI five dose) was 2.22 µM, the TGI (MCF7; NCI five dose) was 1.16E−5 and the “Percent Growth” value (MDA-MB-231/ATCC; Log10 Concentration −4.0) was −85%. The “Percent Growth” value (MDA-MB-231/ATCC; Log10 Concentration −5.0) was 41%, the “Percent Growth” value (MDA-MB-231/ATCC; Log10 Concentration −6.0) was 102% and the “Percent Growth” value (MDA-MB-231/ATCC; Log10 Concentration −7.0) was 97%. The “Percent Growth” value (MDA-MB-231/ATCC; Log10 Concentration −8.0) was 105%, the GI50 (MDA-MB-231/ATCC; NCI five dose) was 7.13 µM and the TGI (MDA-MB-231/ATCC; NCI five dose) was 2.12E−5. For the same compound, the “Percent Growth” value (NCI/ADR-RES; Log10 Concentration −4.0) was −52%, the “Percent Growth” value (NCI/ADR-RES; Log10 Concentration −5.0) was 64% and the “Percent Growth” value (NCI/ADR-RES; Log10 Concentration −6.0) was 99%. The “Percent Growth” value (NCI/ADR-RES; Log10 Concentration −7.0) was 104%, the “Percent Growth” value (NCI/ADR-RES; Log10 Concentration −8.0) was 95% and the GI50 (NCI/ADR-RES; NCI five dose) was 13.1 µM. For the same compound, the TGI (NCI/ADR-RES; NCI five dose) was 3.55E−5.
